Common to all, as to test: HTS ATP-utilizing enzyme assay, off-chip mobility-shift (Caliper HTS 250)
Type in all cases: biochemical
Common to all, as to details: test compound 10 μM, kinase listed = active (greater than six-sigma from the mean activity of inactive compounds)

The target of test [1] is AKT1 (Homo sapiens, UniProt P31749). In a few lines:
(§1)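 The ratio of peptide substrate to phosphorylated product, measured by microfluidic mobility shift, gave percent inhibition. Reactions contained enzyme, peptide substrate and compound at 10 μM in HEPES pH 7.5 buffer, ran 2.5 hrs at 20° C. to 22° C., and were quenched with EDTA.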

The target of test [2] is GSK-3-β (Homo sapiens, UniProt P49841). The procedure, abridged:
as §1

Test [3] concerns the target MSK1 (Homo sapiens, UniProt O75582). The procedure, abridged:
as §1

Results on 1 molecule are retold here after patent publication US7452887B2, “Quinoline- and isoquinoline-based compounds exhibiting ATP-utilizing enzyme inhibitory activity, and compositions, and uses thereof” (Amphora Discovery Corporation, priority 2004, dated 2008).

AKT1, sequence (P31749 whole entry): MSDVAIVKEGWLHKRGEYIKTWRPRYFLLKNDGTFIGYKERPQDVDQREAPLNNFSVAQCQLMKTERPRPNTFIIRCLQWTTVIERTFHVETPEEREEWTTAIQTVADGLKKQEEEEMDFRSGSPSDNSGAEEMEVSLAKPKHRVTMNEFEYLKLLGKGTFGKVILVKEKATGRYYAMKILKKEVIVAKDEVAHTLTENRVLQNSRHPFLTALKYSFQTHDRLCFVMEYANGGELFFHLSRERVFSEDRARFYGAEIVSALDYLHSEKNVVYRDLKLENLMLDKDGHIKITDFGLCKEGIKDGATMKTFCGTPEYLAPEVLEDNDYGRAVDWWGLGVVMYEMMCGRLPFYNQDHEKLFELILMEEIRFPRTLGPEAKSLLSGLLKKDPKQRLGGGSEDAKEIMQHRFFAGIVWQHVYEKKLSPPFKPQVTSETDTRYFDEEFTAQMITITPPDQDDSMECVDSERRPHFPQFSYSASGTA
GSK-3-β, sequence (P49841 whole entry): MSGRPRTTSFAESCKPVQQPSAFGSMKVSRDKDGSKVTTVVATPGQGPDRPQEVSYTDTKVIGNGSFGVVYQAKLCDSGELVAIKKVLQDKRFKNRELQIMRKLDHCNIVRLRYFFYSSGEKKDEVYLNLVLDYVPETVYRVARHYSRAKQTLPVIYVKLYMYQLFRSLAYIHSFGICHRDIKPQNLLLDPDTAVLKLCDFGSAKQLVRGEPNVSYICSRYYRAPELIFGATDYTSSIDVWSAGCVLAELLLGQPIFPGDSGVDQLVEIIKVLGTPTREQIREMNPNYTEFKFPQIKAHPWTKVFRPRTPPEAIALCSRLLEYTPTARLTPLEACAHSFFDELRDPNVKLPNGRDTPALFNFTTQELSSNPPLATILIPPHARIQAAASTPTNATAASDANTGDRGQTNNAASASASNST
MSK1, sequence (O75582 whole entry): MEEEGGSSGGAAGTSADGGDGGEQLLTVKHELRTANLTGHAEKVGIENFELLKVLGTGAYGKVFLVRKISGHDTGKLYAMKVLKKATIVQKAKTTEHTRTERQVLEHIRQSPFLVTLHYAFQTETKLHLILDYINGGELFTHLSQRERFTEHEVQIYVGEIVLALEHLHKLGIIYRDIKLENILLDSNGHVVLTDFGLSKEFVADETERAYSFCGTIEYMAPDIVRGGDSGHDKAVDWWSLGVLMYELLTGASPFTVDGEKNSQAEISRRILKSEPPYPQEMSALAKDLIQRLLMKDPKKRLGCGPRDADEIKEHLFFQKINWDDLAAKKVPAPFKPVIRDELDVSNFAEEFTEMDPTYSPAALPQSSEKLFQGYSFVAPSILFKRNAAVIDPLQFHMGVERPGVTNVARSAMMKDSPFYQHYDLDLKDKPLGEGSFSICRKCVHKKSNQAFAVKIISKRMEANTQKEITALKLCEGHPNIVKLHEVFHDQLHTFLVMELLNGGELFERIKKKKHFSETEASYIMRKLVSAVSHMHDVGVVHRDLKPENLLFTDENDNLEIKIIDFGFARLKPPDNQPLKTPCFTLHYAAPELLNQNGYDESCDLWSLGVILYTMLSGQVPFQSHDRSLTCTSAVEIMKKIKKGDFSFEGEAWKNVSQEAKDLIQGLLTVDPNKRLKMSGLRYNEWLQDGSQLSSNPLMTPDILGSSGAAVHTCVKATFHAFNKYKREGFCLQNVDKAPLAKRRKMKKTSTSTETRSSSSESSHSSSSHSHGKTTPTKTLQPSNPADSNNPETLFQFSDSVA

As for `CN1CCN(c2ccc(Nc3ccnc4ccc(-c5ccncc5)cc34)cc2)CC1` [N-(4-(4-methylpiperazin-1-yl)phenyl)-6-(pyridin-4-yl)quinolin-4-amine], the results for the Activity result in test [1], in test [2] and in test [3] were “AKT1”, “GSK-3-β” and “MSK1”, respectively.
